# Test results taken from ChEMBL document CHEMBL1914384, “Design, synthesis, and structure-activity relationship studies of highly potent novel benzoxazinyl-oxazolidinone antibacterial agents” (J Med Chem, 2011).
# Legend:
# Type in all cases: functional
# Staphylococcus aureus [1] = assay: Antibacterial activity against Staphylococcus aureus ATCC 29213 after 16 hrs by agar dilution method; conditions: ATCC 29213, 16 h
# Staphylococcus aureus [2] = assay: Antibacterial activity against methicillin-resistant Staphylococcus aureus after 16 hrs by agar dilution method
# [3] = tested on: Staphylococcus epidermidis; assay: Antibacterial activity against methicillin-resistant Staphylococcus epidermidis after 16 hrs by agar dilution method
# Streptococcus pneumoniae = assay: Antibacterial activity against penicillin-resistant Streptococcus pneumoniae after 16 hrs by agar dilution method
# Enterococcus faecalis = assay: Antibacterial activity against Enterococcus faecalis after 16 hrs by agar dilution method
Structure (SMILES),MIC (Staphylococcus aureus [1]) [µg/mL],MIC (Staphylococcus aureus [2]) [µg/mL],MIC [3] [µg/mL],MIC (Streptococcus pneumoniae) [µg/mL],MIC (Enterococcus faecalis) [µg/mL]
CC(=O)NC[C@@H]1OC(=O)N2c3ccc(-c4cnc(N)nc4)cc3OC[C@@H]12,1,1,1,1,2
CC(=O)NC[C@@H]1OC(=O)N2c3ccc(-c4cnc(C#N)nc4)cc3OC[C@@H]12,1,1,0.5,2,2
CC(=O)NC[C@@H]1OC(=O)N2c3cc(F)c(-c4ccncc4)cc3OC[C@@H]12,2,4,2,8,8
CC(=O)NC[C@@H]1OC(=O)N2c3cc(F)c(-c4cccnc4)cc3OC[C@@H]12,2,1,1,2,2
CC(=O)NC[C@@H]1OC(=O)N2c3cc(F)c(-c4ccc(C#N)nc4)cc3OC[C@@H]12,2,1,1,2,2
CC(=O)NC[C@@H]1OC(=O)N2c3ccc(-c4ccc(NC(C)=O)nc4)cc3OC[C@@H]12,0.5,0.5,1,1,1
CC(=O)NC[C@@H]1OC(=O)N2c3ccc(-c4ccc(-c5nnn(C)n5)nc4)cc3OC[C@@H]12,0.5,0.5,0.5,0.5,1
CC(=O)NC[C@@H]1OC(=O)N2c3ccc(-c4ccc(-c5noc(C)n5)nc4)cc3OC[C@@H]12,0.25,0.5,0.5,1,1
CC(=O)NC[C@@H]1OC(=O)N2c3ccc(-c4ccc(CC#N)nc4)cc3OC[C@@H]12,0.25,0.25,0.25,0.5,0.5
CC(=O)NC[C@@H]1OC(=O)N2c3ccc(-c4ccc(N5CCNCC5)nc4)cc3OC[C@@H]12,0.5,1,0.5,1,0.5
CC(=O)NC[C@@H]1OC(=O)N2c3ccc(-c4ccc(C(=O)N(C)C)nc4)cc3OC[C@@H]12,2,1,1,2,2
CC(=O)NC[C@@H]1OC(=O)N2c3ccc(-c4ccc(-n5cncn5)nc4)cc3OC[C@@H]12,0.5,1,1,2,2
CC(=O)NC[C@@H]1OC(=O)N2c3ccc(-c4ccc(C(F)(F)F)nc4)cc3OC[C@@H]12,2,1,1,2,2
COC(=O)c1ccc(-c2ccc3c(c2)OC[C@H]2[C@H](CNC(C)=O)OC(=O)N32)cn1,0.5,0.5,0.5,1,1
CC(=O)NC[C@@H]1OC(=O)N2c3ccc(-c4cncc(C#N)c4)cc3OC[C@@H]12,0.5,0.5,0.5,0.5,1
CC(=O)NC[C@@H]1OC(=O)N2c3ccc(-c4ccc(C#N)cn4)cc3OC[C@@H]12,2,1,1,2,2
CC(=O)NC[C@@H]1OC(=O)N2c3ccc(-c4cc(C#N)ccn4)cc3OC[C@@H]12,0.5,0.5,0.25,0.25,1
CC(=O)NC[C@@H]1OC(=O)N2c3ccc(-c4cncc(C(C)=O)c4)cc3OC[C@@H]12,1,1,0.5,1,1
CC(=O)NC[C@@H]1OC(=O)N2c3ccc(-c4ccc(C(C)=O)cn4)cc3OC[C@@H]12,2,2,2,2,4
CC(=O)NC[C@@H]1OC(=O)N2c3ccc(-c4cncc(N5CCOC5=O)c4)cc3OC[C@@H]12,1,0.5,0.5,1,0.5
CC(=O)NC[C@@H]1OC(=O)N2c3ccc(-c4ccc(N5CCOC5=O)cn4)cc3OC[C@@H]12,1,1,1,1,2
CC(=O)NC[C@@H]1OC(=O)N2c3ccc(-c4ccc(C#N)nc4)cc3OC[C@H]12,> 16,> 16,> 16,> 16,> 16
CC(=O)NC[C@@H]1OC(=O)N2c3ccc(-c4ccc(-n5ccnc5)nc4)cc3OC[C@@H]12,0.5,0.5,0.5,0.5,1
